Reference: patent US8633243B2, “Forms of CDDO methyl ester” (priority 2007, dated 2014)
Converted amounts (≈) assume the structure as drawn. Read-outs that look alike come from different tables or passages of the source.

What was measured:
[1] = test system: MCF-7/Her-2 Breast Cancer Xenograft; conditions: i.v.; doses at or below the MTD; Konopleva et al. 2006; cited from earlier work
[2] = test system: NCI-60 tumor cell line panel; format: cell-based; conditions: average over panel
[3] = test system: NCI-H460 Lung Cancer Xenograft; test: NCI-H460 Lung Cancer Xenograft; conditions: p.o.
[4] = test system: advanced (metastatic) cancer; test: Phase I dose-escalation trial, safety and anti-tumor activity; format: in vivo, human
Description: Both the safety and anti-tumor activity of CDDO-Me were reviewed. In addition, the biological effects of CDDO-Me were characterized. […] Several patients (approximately 75% of evaluable patients) were considered to have stable disease (based on standard radiological and clinical criteria) at the first evaluation point following completion of the second treatment cycle. […] Five patients, including patients with melanoma and renal cell cancer, continued to show stable disease, some with evidence of regression of individual tumor lesions, after four cycles of treatment. Four patients were considered to have stable disease after at least six cycles of treatment.

[5] = test system: 4T1 Syngeneic Breast Cancer; conditions: i.v., cited from earlier work
[6] = Phase I trial, serum creatinine; conditions: day 21
[7] = test system: L3.6PL Pancreatic Cancer Xenograft; test: L3.6PL Pancreatic Cancer Xenograft; conditions: i.v.
[8] = Approximate solubility, solvent addition method; format: physicochemical; conditions: thermodynamic from solid, room temperature
Procedure: A weighed sample was treated with aliquots of the test solvent at room temperature. Complete dissolution of the test material was determined by visual inspection. Solubility was estimated based on the total solvent used to provide complete dissolution. The actual solubility may be greater than the value calculated because of the use of solvent aliquots that were too large or due to a slow rate of dissolution. […] If complete dissolution was achieved as a result of only one aliquot addition, the solubility is expressed as “greater than.” Approximate solubilities were determined in various solvents at room temperature, with the results as provided in Table 2.

[9] = test system: NQO1 (NAD(P)H:quinone oxidoreductase); test: Phase I trial, phase 2 gene products in peripheral blood mononuclear cells; format: in vivo, human; conditions: doses of 10 mg/day and above
Description: Additionally, phase 2 gene products, which include antioxidant and detoxification enzymes, have been monitored in peripheral blood mononuclear cells of patients in the Phase I study.

[10] = test system: DU-145 Prostate Cancer Xenograft; test: DU-145 Prostate Cancer Xenograft; conditions: p.o.
[11] = test system: MMP-9, TNFα, IL-8, and VEGF; test: Phase I trial, circulating inflammatory cytokines; format: in vivo, human
Procedure: Based on the known anti-inflammatory properties of CDDO-Me, circulating inflammatory cytokines were evaluated in patients in the Phase I trial. At doses as low as 5 mg/day, there was a reduction of several circulating pro-inflammatory cytokines and chemokines including MMP-9, TNFα, IL-8, and VEGF.

[12] = test system: COX-2, iNOS, phosphorylated STAT3 (pSTAT3); test: Phase I trial, tumor biopsy data

COC(=O)[C@]12CCC(C)(C)C[C@H]1[C@H]1C(=O)C=C3[C@@]4(C)C=C(C#N)C(=O)C(C)(C)[C@@H]4CC[C@@]3(C)[C@]1(C)CC2 [CDDO methyl ester, methyl 2-cyano-3,12-dioxoleana-1,9(11)-dien-28-oate]
DRUG ACTIVITY, regression [1]: 15% regression | IC50 [2]: ~35 nM | comparison with radiation [3]: Me as effective as radiation | DRUG ACTIVITY, TGI (Tumor Growth Inhibition) ([3]; doses at or below the MTD): 78% TGI^1 | drug-related adverse events ([4]; 5 to 900 mg/day, 21 days on / 7 days rest): no significant drug-related adverse events reported | patients considered to have stable disease ([4]; after at least six cycles of treatment): Four | patients continuing to show stable disease ([4]; after four cycles of treatment): Five | tolerability ([4]; capsules of micronized Form A, 5 to 900 mg/day, 21 days on / 7 days rest, 21 adult patients): very well tolerated | evaluable patients with stable disease ([4]; first evaluation point after the second treatment cycle): approximately 75% | new metastases ([4]; patients receiving at least 40 mg per day): No new metastases developed | DRUG ACTIVITY, suppression ([5]; Delayed Treatment): 67% suppression | animals tumor-free at sacrifice ([5]; Delayed Treatment, sacrifice on Day 95): 33% of animals tumor-free at | DRUG ACTIVITY, suppression ([5]; Early Treatment, Ling et al. 2007): 100% suppression | animals tumor-free at sacrifice ([5]; Early Treatment, sacrifice on Day 85): All animals remained tumor-free | patients with serum creatinine significantly lower than pre-treatment baseline [6]: more than 80% | comparison with Gemcitabine [7]: CDDO-Me outperformed | DRUG ACTIVITY, TGI (Tumor Growth Inhibition) ([7]; doses at or below the MTD): 51% TGI | solubility ([8]; isopropanol/water (10:1), organic solvent or mixture, (10:1) Isopropanol/water): 4 mg/mL (≈ 7.91 mM) | solubility ([8]; organic solvent or mixture, 1,4-Dioxane): 21 mg/mL (≈ 41.5 mM) | solubility ([8]; organic solvent or mixture, ACN (acetonitrile)): 66 mg/mL (≈ 131 mM) | solubility ([8]; organic solvent or mixture, Acetone): 70 mg/mL (≈ 138 mM) | solubility ([8]; organic solvent or mixture, DCM (dichloromethane)): > 194 mg/mL | solubility ([8]; organic solvent or mixture, EtOAc (ethyl acetate)): 36 mg/mL (≈ 71.2 mM) | solubility ([8]; organic solvent or mixture, EtOH (ethanol)): 4 mg/mL (≈ 7.91 mM) | solubility ([8]; organic solvent or mixture, Hexanes): < 1 mg/mL | solubility ([8]; organic solvent or mixture, MTBE (tert-butyl methyl ether)): 4 mg/mL (≈ 7.91 mM) | solubility ([8]; organic solvent or mixture, MeOH (methanol)): 8 mg/mL (≈ 15.8 mM) | solubility ([8]; organic solvent or mixture, THF (tetrahydrofuran)): 97 mg/mL (≈ 192 mM) | solubility ([8]; organic solvent or mixture, Toluene): 38 mg/mL (≈ 75.1 mM) | solubility ([8]; Water): < 0.1 mg/mL | NQO1 in peripheral blood mononuclear cells [9]: Significant induction | DRUG ACTIVITY, TGI (Tumor Growth Inhibition) ([10]; doses at or below the MTD): 77% TGI | TGI, multiple schedules tested ([10]; multiple schedules): 60-77% | circulating TNFα ([11]; 3 patients with elevated baseline TNF levels, 10, 20 and 40 mg per day): reduced substantially or to below detectable limits | circulating pro-inflammatory cytokines and chemokines including MMP-9, TNFα, IL-8, and VEGF ([11]; doses as low as 5 mg/day): reduction | tumor tissue levels of COX-2, iNOS and pSTAT3 ([12]; biopsies of several patients after two cycles): pronounced reductions | tumor cell death in biopsy ([12]; several patients, after two cycles): pronounced degree of tumor cell death
